According to patent US9084813B2, “Agents that reduce neuronal overexcitation” (The J. David Gladstone Institutes, priority 2007, dated 2015):

How the values were obtained:
mice [1] = test: Excitotoxicity assessment: PTZ-induced seizures; type: in vivo, mouse; settings: single i.p. injection 40 mg/kg
Method: (§1) Drugs were dissolved in PBS and delivered by intraperitoneal injection. Pentylenetetrazole (PTZ, Sigma, St. Louis, Mo.) was used at a concentration of 5 mg/ml and a dose of 40 mg/kg. Kainate (Tocris, Ellisville, Mo.) was used at a concentration of 2 mg/ml and doses ranging from 20-40 mg/kg. For mice given PTZ, each mouse was placed in a cage and observed for 20 min after administration, with video recording. An investigator blinded to genotype analyzed the videotapes to quantify the time course and severity of seizures according to published scales (9, 10). Seizures severity scores were: 0=normal behavior; 1=immobility; 2=generalized spasm, tremble, or twitch; 3=tail extension; 4=forelimb clonus; 5=generalized clonic activity; 6=bouncing or running seizures; 7=full tonic extension; 8=death. For mice given KA, each mouse was placed in a cage and observed for 3 hours after administration. An investigator blinded to genotype quantified the time course and severity of seizures according to published scales (11); the percentage of mice attaining stage 6 (generalized tonic-clonic seizures) is presented.
A value of P<0.05 was considered significant. Error bars represent standard error of the mean. Survival data (FIG. 2E) was analyzed with Kaplan-Meier statistics and post-hoc log rank tests. Fisher's exact test was used to analyze occurrence of fatal status epilepticus after PTZ injection. Logistic regression was used to generate and compare dose-response curves for the proportion of mice seizing after KA administration (FIG. 4D). For other experiments, genotype differences were analyzed by ANOVA (repeated measures where indicated), using the Tukey test for post-hoc comparisons.

mice [2] = test: Excitotoxicity assessment: kainate-induced seizures; type: in vivo, mouse; settings: Tau^+/+ mice, single i.p. injection, 20-40 mg/kg, age 2-5 months
Method: as §1
A value of P<0.05 was considered significant. […] Survival data (FIG. 2E) was analyzed with Kaplan-Meier statistics and post-hoc log rank tests. […] For other experiments, genotype differences were analyzed by ANOVA (repeated measures where indicated), using the Tukey test for post-hoc comparisons.

Compound: C1CCc2nnnn2CC1 [PTZ, Pentylenetetrazole]
- mice suffering fatal status epilepticus (mice [1]; hAPP/Tau^+/+ mice, age 4-7 months): 20%
- death after PTZ (mice [1]; hAPP/Tau^+/− and hAPP/Tau^−/− mice): no hAPP/Tau^+/− or hAPP/Tau^−/− mice died
- lethality of the dose (mice [1]; mice without hAPP): non-lethal

Compound: C=C(C)[C@H]1CN[C@H](C(=O)O)[C@H]1CC(=O)O [kainate, Kainate]
- induction of generalized tonic-clonic seizures (mice [2]): dose-dependently induced seizures
